# Assay results: patent publication US11052089B2, “Methods for inhibiting alpha-v beta-3 expression on cancer stem cells and inhibiting progression to a cancer stem cell phenotype” (The Regents of the University of California, priority 2014, dated 2021)
# Experiments:
# Format in all cases: cell-based
# [1] = test system: ITGB3, Nanog and OCT4 induction; assay: mRNA induction of ITGB3, Nanog, OCT4 with GSKJ-4 (FIG. 3, FIG. 11); details: relative to no serum
# Experimental: (§1) FIG. 3A, FIG. 3B, FIG. 3C and FIG. 3D graphically illustrate data showing that treatment with histone modification inhibitor(s) suppresses the stress induced drug resistant phenotype: FIG. 3A illustrates fold expression mRNA relative to serum after ITGB3 induction of control vehicle, 0.10 μM GSKJ4, and 0.25 μM GSKJ4; FIG. 3B illustrates fold expression mRNA relative to serum after Nanog induction of control vehicle, 0.10 μM GSKJ4, and 0.25 μM GSKJ4; FIG. 3C illustrates nM Erlotinib under conditions comprising serum, no serum and no serum and GSKJ4; and FIG. 3D illustrates fold expression mRNA relative to serum after ITGB3 induction with serum, no serum and no serum and GSKJ4.
# FIG. 11A schematically illustrates, and FIG. 11B, FIG. 11C, FIG. 11D and FIG. 11E graphically illustrate that GSKJ-4, which targets histone demethylase JMJD3, suppresses β3 expression as well as pluripotent genes Nanog and OCT4, with the conclusion that GSKJ-4 suppresses ITGB3, Nanog and OCT4 induction by inhibiting JMJD3-targeted H3K27me3 demethylation; and FIG. 11B, FIG. 11C, FIG. 11D and FIG. 11E graphically illustrate fold induction mRNA relative to no serum as a function of GSKJ-4 suppression of ITGB3, Nanog and OCT4 induction, with FIG. 11B, FIG. 11C, FIG. 11D and FIG. 11E illustrating levels of ITGB3, Nanog, OCT4 and SOX2, respectively.
# [2] = test system: stress induced drug resistant phenotype; assay: Stress induced drug resistant phenotype, Erlotinib (FIG. 3C); details: serum, no serum, no serum and GSKJ4
# Experimental: as §1
# [3] = test system: lung cancer cells (HCC827); assay: 14 day assay for cell surface induction of integrin β3 by nutrient deprivation, cell sorting (FIG. 13, FIG. 14); details: HCC827, nutrient deprivation (no serum)
# ITGB3 = ITGB3 induction in the presence of HAT inhibitor (FIG. 2)
# Text: FIG. 2 graphically illustrates data showing that ITGB3 induction is suppressed in the presence of histone acetyltransferase (HAT) inhibitor anacardic acid.
# [4] = test system: integrin β3 expression in HCC827 lung cancer cells; assay: Stress induced integrin β3 and stem cell gene expression, gels (FIG. 12); details: nutrient deprivation (without serum), 0.1 uM
# Text: FIGS. 12A and 12B illustrate data showing the knockdown of P300 histone acetyl transferase (HAT), a known enzyme that targets H3K27ac, in HCC827 lung cancer cells. Histone acetyl transferase (acetyl p300) activity is increased during nutrient deprivation (without serum) leading to integrin β3 expression, which prevents stress-induced expression of integrin β3 and stem cell genes. Increase in histone acetyltransferase (HAT) p300 activity leads to upregulation of integrin β3. Loss of p300 histone acetyltransferase activity prevents the upregulation of integrin β3. Similar to chemical inhibition of HAT activity with anacardic acid at 0.1 uM concentration, a genetic approach was used to knockdown p300 histone acetyl transferase (HAT), a known enzyme that targets H3K27ac prevents expression of integrin β3 and stem cell genes.
"ITGB3 (β3) induction, fold induction mRNA [1]","Nanog induction, fold induction mRNA [1]","OCT4 induction, fold induction mRNA [1]",Structure (SMILES),stress induced drug resistant phenotype [2],expansion of integrin β3 expressing stem population [3],formation of the heterodimeric αVβ3 cell surface expression [3],induction of integrin β3 gene expression [3],ITGB3 induction (ITGB3),downstream stem cell genes expression [4],stress induced integrin β3 expression [4]
suppresses,suppresses,suppresses,CCOC(=O)CCNc1cc(N2CCc3ccccc3CC2)nc(-c2ccccn2)n1 [GSKJ4],suppresses,prevents the expansion,prevents,prevents the induction,–,–,–
–,–,–,"C=CC/C=C\C/C=C\CCCCCCCc1cccc(O)c1C(=O)O [anacardic acid, 2-hydroxy-6-[(8Z,11Z)-pentadeca-8,11,14-trienyl]benzoic acid]",–,–,–,–,suppressed,prevents,prevents
